Earlier results in EP0438873A1, “Inhibitor of ribonucleotide reductase of herpes viruses” (MERCK & CO. INC., priority 1989, dated 1991).
Where no end group is shown, it is not given here.

Tested on: ribonucleotide reductase enzyme of herpes simplex virus
Conditions: from Dutia et al., Cohen et al., U.S. Patent No. 4,795,740

| Substance | inhibited in vitro the activity of this enzyme (HSV ribonucleotide reductase) |
| --- | --- |
| Tyr Ala Gly Ala Val Val Asn Asp Leu (YAGAVVNDL; printed: Tyr Ala Gly Ala Val Val Asn Asp Leu) [the nonapeptide disclosed by Dutia et al. and Cohen et al] | inhibited |
| YGAVVNDL [8-desalanine homolog of the nonapeptide, disclosed by Dutia et al] | inhibited |
